Measured values reported in patent US8568736B2, “Polypeptide derivatives of parathyroid hormone (PTH)” (The General Hospital Corporation, priority 1999, dated 2013).
No end group written: not given here.

Assays:
hPTH-2 Receptor = molecular target: T1, hPTH-2 Receptor (Homo sapiens, UniProt P49190); experiment: cAMP stimulation in LLC-P2R-22 cells (LLC-PK1 stably transfected with hPTH-2 receptor); assay type: cell-based; conditions: for Emax / EC50 Log M: LLC-P2R-22 cells (hPTH-2 Receptor)
T1 construct: expressed in transfected cells; host or cells: LLC-PK1 porcine kidney cells (clone given as hPR2-20, hPR2-22, LLC-P2R-22 or P2R-22)
T1 sequence (P49190 25-550): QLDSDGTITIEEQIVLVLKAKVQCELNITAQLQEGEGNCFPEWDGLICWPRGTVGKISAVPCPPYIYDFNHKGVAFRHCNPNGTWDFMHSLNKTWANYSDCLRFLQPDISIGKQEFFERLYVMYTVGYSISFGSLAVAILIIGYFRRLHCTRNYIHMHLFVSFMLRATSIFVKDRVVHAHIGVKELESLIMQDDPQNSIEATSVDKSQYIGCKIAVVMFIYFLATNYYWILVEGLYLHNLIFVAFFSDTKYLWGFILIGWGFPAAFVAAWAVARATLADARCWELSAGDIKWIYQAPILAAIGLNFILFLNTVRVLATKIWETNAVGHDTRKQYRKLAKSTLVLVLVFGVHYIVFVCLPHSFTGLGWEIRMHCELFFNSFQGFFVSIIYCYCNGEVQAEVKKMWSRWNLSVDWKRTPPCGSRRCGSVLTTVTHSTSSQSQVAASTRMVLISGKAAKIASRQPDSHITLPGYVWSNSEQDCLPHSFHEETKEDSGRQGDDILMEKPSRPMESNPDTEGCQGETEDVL
Description: (§1) Stably transfected derivatives of the porcine kidney cell line LLC-PK1, HKRK-B7 (Takasu, H., et al., J. Bone Miner. Res. 14:11-20 (1999)) and hPR2-20, express the human PTH-1 and human PTH-2 receptors respectively. The HKRK-B7 LLC-PK1 cell line expresses the hPTH-1 receptor at ˜1×10^6 receptors/cell (Takasu, H., et al., J. Bone Miner. Res. 14:11-20 (1999)), and the hPR2-22 LLC-PK1 cell line expresses the hPTH-2 receptor at ˜0.8×10^6 receptors/cell (provided by H. Takasu and F. R. Bringhurst, Endocrine Unit, Massachusetts General Hospital).
(§2) Stimulation of cells with peptide analogs was performed in 24-well plates. Cells were rinsed with 0.5 mL of binding buffer and treated with 200 μL of cAMP assay buffer (Dulbecco's modified Eagle's medium containing 2 mM 3-isobutyl-1-methylxanthine, 1 mg/mL bovine serum albumin, 35 mM Hepes-NaOH, pH 7.4) and 100 μL of binding buffer containing varying amounts of peptide analog (final volume=300 μL). The medium was removed after incubation for 1 h at room temperature, and the cells were frozen (−80° C.), lysed with 0.5 mL 50 mM HCl, and refrozen (−80° C.). The cAMP content of the diluted lysate was determined by radioimmunoassay. Where possible, cAMP EC50 and Maximum response values were determined using nonlinear regression (see below).
(§3) Intracellular cAMP accumulation may be measured as described by Abou-Samra et al., J. Biol. Chem. 262:1129, 1986) or other methods known to those of skill in the art. Intracellular cAMP is extracted by thawing the cells in 1 ml of 50 mM HCl and analyzed by a specific radioimmunoassay using an anti-cAMP antibody (e.g., Sigma, St. Louis, Mo.). A cAMP analog (2′-O-monosuccinyl-adenosine 3′:5′-cyclic monophosphate tyrosyl methyl ester, obtained from Sigma) which is used as a tracer for cAMP is iodinated by the chloramine T method. Free iodine is removed by adsorbing the iodinated cAMP analog onto a C18 Sep-pak cartridge (Waters, Milford, Mass.). After washing with dH2O, the iodinated cAMP analog is eluted from the Sep-pak Cartridge with 40% acetonitrille (ACN) and 0.1% trifluoroacetic acid (TFA). The iodinated cAMP analog is lyophilized, reconstituted in 1 ml 0.1% TFA, and injected into a C18 reverse phase HPLC column (Waters). The column is equilibrated with 10% ACN in 0.1% TFA, and eluted with gradient of 10-30% ACN in 0.1% TFA. This allows separation of the mono-iodinated cAMP analog from the non-iodinated cAMP analog. The tracer is stable for up to 4 months when stored at −20° C. The standard used for the assay, adenosine 3′:5′-cyclic monophosphate, is purchased from Sigma. Samples (1-10 µl of HCl extracts) or standards (0.04-100 fmol/tube) are diluted in 50 mM Na-acetate (pH 5.5), and acetylated with 10 μl of mixture of triethylamine and acetic anhydride (2:1 vol:vol). After acetylation, cAMP antiserum (100 μl) is added from a stock solution (1:4000) made in PBS (pH 7.4), 5 mM EDTA and 1% normal rabbit serum. The tracer is diluted in PBS (pH 7.4) with 0.1% BSA, and added (20,000 cpm/tube). The assay is incubated at 4° C. overnight. The bound tracer is precipitated by adding 100 μl of goat anti-rabbit antiserum (1:20 in PBS) and 1 ml of 7% polyethyleneglycol (MW 5000-6000), centrifuging at 2000 rpm for 30 min. at 4° C. The supernatant is removed and the bound radioactivity is counted in a gamma-counter (Micromedic). To compute the cAMP data, logit calculations were performed in Excel spreadsheets. Typically, the assay sensitivity is 0.1 fmol/tube, and the standard concentration that displaces 50% of tracer is 5 fmol/tube.
(§4) All calculations were performed using Microsoft Excel. Nonlinear regression analysis of cAMP stimulation data was performed using parameters, defined as the Minimum, Maximum, Emax, midpoint (EC50), and slope of the response curve. The predicted response (yp) for a given dose (x) of peptide was calculated using the following equation: yp=Min+[(Max−Min)/(1+(EC50/x)^slope)]. […]

PTH-1 receptor = molecular target: T2, PTH-1 receptor (Homo sapiens, UniProt Q03431); experiment: cAMP stimulation in HKRK-B7 cells (LLC-PK1 stably transfected with hPTH-1 receptor); assay type: cell-based; design: expressed in transfected cells; host or cells: LLC-PK1 porcine kidney cells, clone HKRK-B7; conditions: for Emax: Emax constrained to ±1 SD of rPTH(1-34) response at 100 nM; for fold more potent than native PTH(1-14): LLC-PK1 cells stably expressing hPTH-1 receptor
T2 sequence (Q03431 27-593): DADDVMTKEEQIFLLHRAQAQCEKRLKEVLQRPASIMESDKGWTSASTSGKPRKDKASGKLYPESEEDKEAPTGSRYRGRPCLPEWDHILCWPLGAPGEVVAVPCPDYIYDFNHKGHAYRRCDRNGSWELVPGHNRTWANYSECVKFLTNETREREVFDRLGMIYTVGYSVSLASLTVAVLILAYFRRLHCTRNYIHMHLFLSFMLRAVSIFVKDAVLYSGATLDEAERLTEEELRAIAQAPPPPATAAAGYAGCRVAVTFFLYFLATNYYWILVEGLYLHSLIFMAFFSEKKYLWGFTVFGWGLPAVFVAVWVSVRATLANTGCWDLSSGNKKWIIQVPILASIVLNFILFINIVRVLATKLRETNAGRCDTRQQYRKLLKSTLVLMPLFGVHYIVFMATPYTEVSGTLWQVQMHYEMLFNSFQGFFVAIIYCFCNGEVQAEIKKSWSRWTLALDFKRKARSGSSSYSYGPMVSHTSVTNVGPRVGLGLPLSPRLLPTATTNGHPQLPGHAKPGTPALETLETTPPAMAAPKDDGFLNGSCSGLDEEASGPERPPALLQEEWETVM
Description: as §1, §2, §3, §4

[1] = LLC-PK1 cells expressing PTH-2 receptor, cAMP

Molecule	Emax (hPTH-2 Receptor) [picomole/well]	potency relative to PTH(1-34) (hPTH-2 Receptor; [1])	stimulation of the PTH-2 receptor (in words) (hPTH-2 Receptor; [1])	Emax (PTH-1 receptor; HKRK-B7 cells) [picomole/well]	fold more potent than native PTH(1-14) (PTH-1 receptor; cAMP) [fold]	fold more potent than native PTH(1-14) (PTH-1 receptor; cAMP, listed as [A^3, A^10, R^11, A^12]rPTH(1-14)amide) [fold]	fold more potent than the two controls, rPTH(1-34) and hPTH(1-34) (PTH-1 receptor; HKRK-B7 cells, cAMP)	EC50 Log M (PTH-1 receptor; HKRK-B7 cells (hPTH-1 Receptor), cAMP, mean ± SEM) [Log M]	EC50 Log M (hPTH-2 Receptor; cAMP)	cAMP signaling activity (in words) (PTH-1 receptor; HKRK-B7 cells, dose-response)
AVAEIQLMHARAKH-NH2 [Peptide #1, AlaValAlaGluIleGlnLeuMetHisAlaArgAlaLysHis-amide]	292 ± 100	four to five orders of magnitude weaker	active	264 ± 16	160	100	–	–	–	–
AVAEIQLMHARAKHLNSMERVEWLRKKLQDVHNY-NH2 [Peptide #7]	677	–	–	244	–	–	about 2 fold	–	–	–
CCCC[C@H](NC(=O)[C@H](CCCNC(=N)N)NC(=O)[C@H](CCC(=O)O)NC(=O)[C@@H](NC(=O)[C@H](CO)NC(=O)[C@H](C)NC(=O)[C@H](CC(C)C)NC(=O)[C@H](Cc1c[nH]cn1)NC(=O)[C@H](CCCCN)NC(=O)CNC(=O)[C@H](CC(C)C)NC(=O)[C@H](CC(N)=O)NC(=O)[C@H](Cc1c[nH]cn1)NC(=O)[C@H](CCCC)NC(=O)[C@H](CC(C)C)NC(=O)[C@H](CCC(N)=O)NC(=O)[C@@H](NC(=O)[C@H](CCC(=O)O)NC(=O)[C@H](CO)NC(=O)[C@@H](NC(=O)[C@H](C)N)C(C)C)[C@@H](C)CC)C(C)C)C(=O)N[C@@H](CCC(N)=O)C(=O)N[C@@H](Cc1c[nH]c2ccccc12)C(=O)N[C@@H](CC(C)C)C(=O)N[C@@H](CCCNC(=N)N)C(=O)N[C@@H](CCCCN)C(=O)N[C@@H](CCCCN)C(=O)N[C@@H](CC(C)C)C(=O)N[C@@H](CCC(N)=O)C(=O)N[C@@H](CC(=O)O)C(=O)N[C@H](C(=O)N[C@@H](Cc1c[nH]cn1)C(=O)N[C@@H](CC(N)=O)C(=O)N[C@@H](Cc1ccc(O)cc1)C(N)=O)C(C)C [[Nle8, 21, Y34]rPTH(1-34), [Nle^8,21,Tyr^34]-rPTH(1-34)NH2, reference compound]	744 ± 48	–	–	293 ± 29	–	–	–	−8.6 ± 0.1	–	–
AVAEIQLMHAR-NH2 [compound 6, AlaValAlaGluIleGlnLeuMetHisAlaArg-amide]	–	–	–	248 ± 13	–	–	–	–	weakly	signaling activity was readily observed
AVSEIQLMHNLGKH-NH2 [native rPTH(1-14), AVSEIQLMHNLGKH, reference compound]	–	–	did not stimulate	299 ± 27	–	–	–	–	inactive	–
